Source: BigSolDB 2.1

c1ccc2c(c1)CCc1ccccc1N2
solubility (mole fraction)
Details | 283.15 K | 288.15 K | 293.15 K | 298.15 K | 303.15 K | 308.15 K | 313.15 K | 318.15 K | 323.15 K | 328.15 K
in DMSO | – | – | 0.0199 | 0.0239 | 0.0285 | 0.0336 | 0.0391 | 0.045 | 0.0516 | 0.0592
in ethanol | 0.000769 | 0.00102 | 0.00136 | 0.00175 | 0.00227 | 0.00284 | 0.0036 | 0.00453 | 0.00558 | 0.00691
in ethylene glycol | 0.000351 | 0.000427 | 0.000494 | 0.000566 | 0.000642 | 0.000722 | 0.000812 | 0.000905 | 0.00101 | 0.00111
in isopropanol | 0.000448 | 0.000585 | 0.000783 | 0.000992 | 0.00127 | 0.00161 | 0.00204 | 0.00253 | 0.00314 | 0.00388
in water | 8.4e-07 | 1.27e-06 | 1.83e-06 | 2.73e-06 | 3.77e-06 | 5.41e-06 | 7.42e-06 | 1.02e-05 | 1.39e-05 | 1.87e-05
